# Measured values: paper PMC9981719, “A novel designed membrane-active peptide for the control of foodborne Salmonella enterica serovar Typhimurium” (Scientific Reports, 2023)
# Where no end group is shown, it is not given here.
# Legend:
# [1] = system: human red blood cells (hRBCs); assay: Hemolysis assay; assay type: cell-based
# Method: The toxicity of all peptide derivatives toward human red blood cells (hRBCs) was investigated by evaluating the amount of hemoglobin released after exposure to peptide. Briefly, hRBCs (blood group O) were collected from a healthy adult volunteer into a heparin-coated polycarbonate tube. The sample was centrifuged for 5 min at 1000g to separate erythrocytes from buffy coat and plasma. The erythrocytes were washed at least three times with 1 × PBS and centrifuged for 5 min at 1000g or until supernatant was clear. The sample was resuspended in PBS to obtain 2% (v/v) hRBCs. To determine hRBC lysis, hRBC suspensions were incubated with equal volumes of various concentrations of peptide (0.98–250 µg/ml) for 1 h at 37 °C. Intact hRBCs were centrifuged for 5 min at 1000g, supernatants were transferred into new 96-well plates, and absorbance was measured at OD 405 nm. Untreated hRBCs (in PBS only) served as negative control (ODNegative) and hRBCs treated with 0.1% Triton X-100 as positive control (ODTritonX-100). Absorbance of samples was converted to percentage hemolysis according to the equation: Hemolysis%=ODSample-ODNegative/ODTriton X-100-ODNegative×100
# 4,5,12:i:- H2-042 = details: checkerboard, TSB, 37 °C, 24 h
# Method: (§1) Effects of the combination of A11 with nisin against S. Typhimurium ATCC 13311 and 10 drug-resistant S. Typhimurium and S. enterica isolates were determined by the checkerboard titration method. Briefly, 10 drug-resistant S. Typhimurium were grown to a concentration of 1 × 10^7 CFU/ml in fresh TSB. Aliquots (25 µl) of nisin (final concentrations of 0.5–16 mg/ml) and A11 (final concentrations of 0.98–250 µg/ml) were added into 96-well plates containing 50 µl of bacterial suspension and cultured at 37 °C. […] ICA is the concentration required to produce the same effect as compound A when used alone, ICB is the concentration required to produce the same effect as compound B when used alone. The CI results were interpreted as follows: a CI of less than 1 indicates synergistic effect, a CI equal to 1 indicates additive effect, and a CI of more than 1 indicates antagonistic effect.
# S. Typhimurium H1-011 = details: checkerboard, TSB, 37 °C, 24 h
# Method: as §1
# S. Typhimurium H1-006 = details: checkerboard, TSB, 37 °C, 24 h
# Method: as §1
# 4,5,12:i:- H2-039 = details: checkerboard, TSB, 37 °C, 24 h
# Method: as §1
# 4,5,12:i:- H1-100 = details: checkerboard, TSB, 37 °C, 24 h
# Method: as §1
# S. Typhimurium H1-062 = details: checkerboard, TSB, 37 °C, 24 h
# Method: as §1
# S. Typhimurium H1-015 = details: checkerboard, TSB, 37 °C, 24 h
# Method: as §1
# 4,5,12:i:- H2-089 = details: checkerboard, TSB, 37 °C, 24 h
# Method: as §1
# S. Typhimurium H1-041 = details: checkerboard, TSB, 37 °C, 24 h
# Method: as §1
# S. Typhimurium ATCC13311 [2] = details: checkerboard, TSB, 37 °C, 24 h
# Method: as §1
# S. Typhimurium H1-001 = details: checkerboard, TSB, 37 °C, 24 h
# Method: as §1
# [3] = system: S. Typhimurium ATCC 13311; assay: Effect of temperature on MIC; assay type: cell-based, Salmonella enterica serovar Typhimurium
# Method: Two-fold serial dilutions (0.98–250 μg/ml) of A11 peptide were prepared and pre-incubated for 60 min at one of various temperatures (40 °C, 60 °C, 80 °C and 100 °C), and then cooled to 4 °C. After 30 min, 50 μl of heated peptide solutions were cultured with 50 μl of S. Typhimurium ATCC 13311 suspensions (approximately 1 × 10^7 CFU/ml). After 24 h incubation at 37 °C, MICs were determined; all experiments were done in triplicate.
# [4] = system: Staphylococcus aureus ATCC 25923; assay type: cell-based
# Excerpt: (§2) All tests were done in triplicate.
# [5] = system: Listeria monocytogenes 10403s; assay type: cell-based; details: 10403s
# Excerpt: as §2
# [6] = system: Acinetobactero baumanii MT strain; assay type: cell-based
# Excerpt: as §2
# [7] = system: Bacillus cereus ATCC 11778; assay type: cell-based
# Excerpt: as §2
# [8] = system: Pseudomonas aeruginosa ATCC 27853; assay type: cell-based
# Excerpt: as §2
# [9] = system: Staphylococcus epidermidis ATCC 12228; assay type: cell-based
# Excerpt: as §2
# S. Typhimurium ATCC13311 [10] = assay type: cell-based, Salmonella enterica serovar Typhimurium; details: at MIC and 2 × MIC
# Method: Bacterial killing kinetics of A11 were investigated against S. Typhimurium as described previously. S. Typhimurium ATCC13311 was grown in TSB at 37 °C until reaching the exponential phase. […] The mixture was sampled at 1, 2, 4, 6, 8, 12 and 24 h, and subsequently tenfold serially diluted in 1 × PBS and plated in triplicate on Mueller–Hinton agar (MHA). After incubation at 37 °C for 24 h, the colonies were counted and CFU/ml was calculated. The tests were done in three independent experiments.
substance,measurement,setting,value
WVKKVARKVVKIGRKVAR-NH2 [A11],hemolytic activity at the MIC concentration,[1],less than 2%
same,MIC (alone),"4,5,12:i:- H2-042",62.5 µg/mL
same,MIC (alone),S. Typhimurium H1-011,62.5 µg/mL
same,MIC (alone),S. Typhimurium H1-006,125 µg/mL
same,MIC (alone),"4,5,12:i:- H2-039",62.5 µg/mL
same,MIC (alone),"4,5,12:i:- H1-100",62.5 µg/mL
same,MIC (alone),S. Typhimurium H1-062,125 µg/mL
same,MIC (alone),S. Typhimurium H1-015,62.5 µg/mL
same,MIC (alone),"4,5,12:i:- H2-089",62.5 µg/mL
same,MIC (alone),S. Typhimurium H1-041,125 µg/mL
same,MIC (alone),S. Typhimurium ATCC13311 [2],15.63 µg/mL
same,MIC (alone),S. Typhimurium H1-001,62.5 µg/mL
same,MIC after 40 °C,"[3]; peptide pre-incubated 60 min at 40 °C, cooled to 4 °C, then 24 h at 37 °C with bacteria, triplicate",15.63 µg/mL
same,MIC after 60 °C,"[3]; peptide pre-incubated 60 min at 60 °C, cooled to 4 °C, then 24 h at 37 °C with bacteria, triplicate",15.63 µg/mL
same,MIC after 80 °C,"[3]; peptide pre-incubated 60 min at 80 °C, cooled to 4 °C, then 24 h at 37 °C with bacteria, triplicate",15.63 µg/mL
same,MIC after 100 °C,"[3]; peptide pre-incubated 60 min at 100 °C, cooled to 4 °C, then 24 h at 37 °C with bacteria, triplicate",15.63 µg/mL
same,"MIC after heat treatment, same value at each temperature",[3]; various temperatures from 40 to 100 °C for 1 h,15.63 µg/mL
same,MBC,"[4]; ATCC 25923, 18 h",> 250 (> 250) µg/ml
same,MIC,"[4]; ATCC 25923, 24 h",> 250 (> 250) µg/ml
same,MBC,[5]; 18 h,125 (125) µg/ml
same,MIC,[5]; 24 h,125 (125) µg/ml
same,MBC,[6]; 18 h,31.25 µg/mL
same,MIC,[6]; 24 h,15.63 µg/mL
same,MBC,"[7]; ATCC 11778, 18 h",250 (250) µg/ml
same,MIC,"[7]; ATCC 11778, 24 h",250 (250) µg/ml
same,MBC,"[8]; ATCC 27853, 18 h",62.5 µg/mL
same,MIC,"[8]; ATCC 27853, 24 h",31.25 µg/mL
same,MBC,"[9]; ATCC 12228, 18 h",31.25 µg/mL
same,MIC,"[9]; ATCC 12228, 24 h",15.63 µg/mL
same,killing of S. Typhimurium within 6 h,S. Typhimurium ATCC13311 [10],more than 99%
